The values that follow are results of earlier work, collected in patent US7956061B2, “Bicyclic pyrimidines as dipeptidyl peptidase-IV inhibitors for the treatment or prevention of diabetes” (Merck Sharp & Dohme Corp., priority 2005, dated 2011).

Data set [1] deals with cardiac allograft. The following applies: rats; Transplantation, 63: 1495-1500 (1997).
Data set [2] has as its target T1, DPP-IV (Homo sapiens, UniProt P27487).
T1 construct: GRF is rapidly degraded in plasma to GRF[3-44]
The following applies: plasma.

Data set [3] deals with hematopoiesis. The following applies: mouse, cyclophosphamide-induced neutropenia; WO 99/56753.

T1 sequence (P27487 39-766 limits assumed, species assumed): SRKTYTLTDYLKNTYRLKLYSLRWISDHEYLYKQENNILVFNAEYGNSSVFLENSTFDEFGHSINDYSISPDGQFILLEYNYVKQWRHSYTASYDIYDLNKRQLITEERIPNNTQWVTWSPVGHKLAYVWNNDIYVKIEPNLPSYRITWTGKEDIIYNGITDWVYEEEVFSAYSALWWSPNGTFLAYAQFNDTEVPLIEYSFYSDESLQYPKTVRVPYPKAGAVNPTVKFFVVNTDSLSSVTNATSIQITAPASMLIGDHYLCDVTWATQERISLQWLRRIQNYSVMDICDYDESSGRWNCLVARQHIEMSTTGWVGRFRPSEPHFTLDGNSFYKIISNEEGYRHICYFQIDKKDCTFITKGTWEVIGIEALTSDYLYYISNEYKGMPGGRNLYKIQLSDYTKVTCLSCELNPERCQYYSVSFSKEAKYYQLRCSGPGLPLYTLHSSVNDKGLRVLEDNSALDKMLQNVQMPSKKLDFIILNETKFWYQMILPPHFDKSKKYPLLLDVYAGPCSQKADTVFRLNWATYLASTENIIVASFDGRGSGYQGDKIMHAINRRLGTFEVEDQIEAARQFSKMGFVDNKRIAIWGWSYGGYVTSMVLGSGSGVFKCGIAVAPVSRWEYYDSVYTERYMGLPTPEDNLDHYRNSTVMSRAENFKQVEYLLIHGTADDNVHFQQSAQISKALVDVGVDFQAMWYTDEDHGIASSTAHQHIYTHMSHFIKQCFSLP

Take `CC(C)N1CCC(c2ccccc2)(c2ccccc2)CC1` [Prodipine, Pro-Pro-diphenyl-phosphonate]: the cardiac allograft survival result in data set [1] is “double cardiac allograft survival in rats from day 7 to day 14”.
Consider diprotin A, for which the “effect on degradation of GRF to GRF[3-44]” value in data set [2] is recorded as “prevented”.
`CC(C)[C@H](N)C(=O)N1CCC[C@H]1B(O)O` [Val-Boro-Pro]: the effect on hematopoiesis entry in data set [3] is listed as “stimulated hematopoiesis”.
